For the assay, the system named is Porcine Smooth Muscle Cell. The assay is described as follows: Effects of compounds on cell proliferation using 3H thymidine incorporation. It is filed as cell-based. To be noted: for IC50: serum/growth factor stimulated cells, 3H thymidine incorporation, 24-36 h, read-out: Porcine Smooth Muscle Cell Antiproliferation IC50. Here is the method:
The compounds of this invention are useful as antiproliferative agents. The following procedures show the evaluation of representative compounds of this invention in standard pharmacological test procedure which measured ability of the evaluated compound to inhibit smooth muscle cell proliferation
Effects of Compounds On Cell Proliferation Using ^3H Thymidine Incorporation
Human and porcine smooth muscle cells were tested in early passage (generally passage 3-7) at sub-confluent conditions. Cultures were grown in 16 mm (24 well) multi-well culture dishes in medium 199 supplemented with 10% fetal bovine serum and 2% antibiotic/antimycotic. At sub-confluence, the cells were placed in a defined serum free medium (AIM-V; Gibco) for 24-48 h prior to initiating the experimental protocol.
Compounds were added to each well at 50 fold dilution (20 μL/well) and the plates were incubated for 24-36 h at 37° C. in 5% CO2. Compounds were initially dissolved in 50% ethanol and serially diluted into media. Compounds were routinely evaluated at concentrations from 1 to 100 μM. As a control, grade II porcine intestinal mucosal heparin (sodium salt) was routinely evaluated in all cell preparations at concentrations from 0.1 to 100 μg/mL.
At the completion of the test procedure, plates were placed on ice, washed three times with ice cold phosphate buffered saline (PBS) and incubated in ice cold 10% trichloroacetic acid (TCA) got 30 min to remove acid soluble proteins. Solution was transferred to scintillation vials containing 0.4 N HCl (500 μL/vial to neutralize NaOH) and each well was rinsed two times with water (500 μL) for a total volume of 2 mL/vial.
Data was obtained, in triplicate, for both control and experimental samples. Control (100%) data was obtained from maximally stimulated cells, as the result of growth factor or serum stimulation. Experimental data was obtained from cells maximally stimulated with growth factor or serum and treated with compound. Data are expressed as an IC50 or percent inhibition in Table I below.
In general terms: Incorporation of labelled thymidine or its analogues reports DNA synthesis.

Where a name gives a salt, the structure may show the parent alone.

For `CC(=O)OC[C@H]1O[C@H](O[C@H]2[C@H](OC(C)=O)[C@@H](OC(C)=O)[C@H](OCc3ccc(C#N)c([N+](=O)[O-])c3)O[C@@H]2COC(C)=O)[C@H](OC(C)=O)[C@@H](OC(C)=O)[C@@H]1OC(C)=O` [Example 8, 5-[(Hepta-O-acetyl-β-D-maltosyl)-oxy-methyl]-2-cyano-1-nitrobenzene], the IC50 turned out to be 2050 nM. Take `Cc1ccc(S(=O)(=O)OC[C@H]2O[C@H](O[C@H]3[C@H](O)[C@@H](O)[C@H](OCc4ccc(C)c([N+](=O)[O-])c4)O[C@@H]3COS(=O)(=O)c3ccc(C)cc3)[C@H](O)[C@@H](O)[C@@H]2O)cc1` [Example 20, 5-{[6,6′-Bis-O-(4-toluenesulfonyl)-β-maltosyl]-oxy-methyl}-2-methyl-1-nitrobenzene]: the IC50 came out at 740 nM. Still for that read-out and setting: the figure for `CC(=O)OC[C@H]1O[C@H](O[C@H]2[C@H](OC(C)=O)[C@@H](OC(C)=O)[C@H](OCc3ccc(Cl)c([N+](=O)[O-])c3)O[C@@H]2COC(C)=O)[C@H](OC(C)=O)[C@@H](OC(C)=O)[C@@H]1OC(C)=O` [Example 1, 4-Chloro-3-nitro-benzyl-β-D-maltoside heptaacetate] is 850 nM. In the case of `CC(=O)OC[C@H]1O[C@H](O[C@H]2[C@H](OC(C)=O)[C@@H](OC(C)=O)[C@H](OCc3ccc(Cl)c(NC(=O)[C@@H](N)CC(=O)OC(C)(C)C)c3)O[C@@H]2COC(C)=O)[C@H](OC(C)=O)[C@@H](OC(C)=O)[C@@H]1OC(C)=O` [Example 2, N-{5-[(Hepta-O-acetyl-β-D-maltosyloxy)-methyl]-2-chloro-phenyl}-L-aspartamide-γ-tert-butyl ester], the IC50 turned out to be 4610 nM.

With `CC(=O)OC[C@H]1O[C@@H](SCc2ccc(Cl)c([N+](=O)[O-])c2)[C@H](OC(C)=O)[C@@H](OC(C)=O)[C@@H]1O[C@H]1O[C@H](COC(C)=O)[C@@H](OC(C)=O)[C@H](OC(C)=O)[C@H]1OC(C)=O` [Example 5, (4-Chloro-3-nitro-benzyl)-hepta-O-acetyl-1-thio-β-D-maltoside], the IC50 was 1140 nM.

Regarding `O=[N+]([O-])c1cc(CS[C@@H]2O[C@H](CO)[C@@H](O[C@H]3O[C@H](CO)[C@@H](O)[C@H](O)[C@H]3O)[C@H](O)[C@H]2O)ccc1Cl` [Example 18, (4-Chloro-3-nitro-benzyl)-1-deoxy-1-thio-β-D-maltoside], the “Porcine Smooth Muscle Cell Antiproliferation percent inhibition” value (@ 50 μM) is reported as 25% @ 50.

With `CC(=O)Nc1cc(CO[C@@H]2O[C@H](CO[Si](C)(C)C(C)(C)C)[C@@H](O[C@H]3O[C@H](CO[Si](C)(C)C(C)(C)C)[C@@H](O)[C@H](O)[C@H]3O)[C@H](O)[C@H]2O)ccc1Cl` [Example 11, N-{2-Chloro-5-[6,6′-di-O-(tert-butyl-dimethyl-silvl)-β-D-maltosyloxy-methyl]-phenyl}-acetamide], the IC50 was found to be 3900 nM.

Consider `CC(=O)Nc1cc(CS[C@@H]2O[C@H](COC(C)=O)[C@@H](O[C@H]3O[C@H](COC(C)=O)[C@@H](OC(C)=O)[C@H](OC(C)=O)[C@H]3OC(C)=O)[C@H](OC(C)=O)[C@H]2OC(C)=O)ccc1Cl` [Example 7], for which the IC50 was found to be 7970 nM.

`CC(=O)Nc1cc(CO[C@@H]2O[C@H](COC(=O)c3ccccc3)[C@@H](O[C@H]3O[C@H](COC(=O)c4ccccc4)[C@@H](O)[C@H](O)[C@H]3O)[C@H](O)[C@H]2O)ccc1Cl` [Example 12, N-{2-Chloro-5-[([6,6′-di-O-benzoyl-β-D-maltosyl]oxy)methyl]phenyl}-acetamide]: the IC50 was in the range of 390 to 2200 nM.

As to `Cc1ccc(CO[C@@H]2O[C@H](Cn3cnc([N+](=O)[O-])c3)[C@@H](O[C@H]3O[C@H](Cn4cnc([N+](=O)[O-])c4)[C@@H](O)[C@H](O)[C@H]3O)[C@H](O)[C@H]2O)cc1[N+](=O)[O-]` [Example 22, 5-{[6,6′-Dideoxy-6,6′-bis(4-nitro-imidazol-1-yl)-β-maltosyl]-oxy-methyl}-2-methyl-1-nitrobenzene], the “Porcine Smooth Muscle Cell Antiproliferation percent inhibition” value (@ 100 μM) is given as 23% @ 100. For `CC(=O)Nc1cc(COC2OC(CO)C(OC3OC(CO)C(O)C(O)C3O)C(O)C2O)ccc1Cl` [Example 9, N-[2-Chloro-5-(β-D-maltosyl-oxymethyl)-phenyl]-acetamide], the “Porcine Smooth Muscle Cell Antiproliferation percent inhibition” value (@ 500 μM) is reported as 0% @ 500. `O=C(Nc1cc(COC2OC(COC(=O)c3ccccc3)C(OC3OC(CO)C(O)C(O)C3O)C(O)C2O)ccc1Cl)c1cccnc1` (stereo not shown) [Example 17, Benzoic acid 6-{4-chloro-3-[(pyridine-3-carbonyl)-amino]-benzyloxy}-4,5-dihydoxy-3-(3,4,5-trihydroxy-6-hydroxymethyl-tetrahydro-pyran-2-yloxy)-tetrahydro-pyran-2-ylmethyl ester hydrochloride]: the IC50 was determined as 245 nM.

For `CC(=O)OC[C@H]1O[C@H](O[C@H]2[C@H](OC(C)=O)[C@@H](OC(C)=O)[C@H](OCc3ccc(Cl)c(NC(=O)[C@H](C)NC(=O)OCC4c5ccccc5-c5ccccc54)c3)O[C@@H]2COC(C)=O)[C@H](OC(C)=O)[C@@H](OC(C)=O)[C@@H]1OC(C)=O` [Example 3, N-{2-Chloro-5-[(2,2′,3,3′,4′,6,6′)-hepta-O-acetyl-β-D-maltosyl-oxymethyl]-phenyl}-(9H-fluoren-9-ylmethoxycarbonyl)-L-alaninamide], the IC50 stood at 1710 nM.

`O=C(OC[C@H]1O[C@H](O[C@H]2[C@H](O)[C@@H](O)[C@H](OCc3ccc(Cl)c([N+](=O)[O-])c3)O[C@@H]2COC(=O)c2cccnc2)[C@H](O)[C@@H](O)[C@@H]1O)c1cccnc1` [Example 14, (4-Chloro-3-nitrophenyl)methyl-4-O-[6-O-(3-pyridinylcarbonyl)-α-D-glucopyranosyl]-β-D-glucopyranoside-6-(3-pyridinecarboxylate)]: the IC50 is 6560 nM. For the compound `CC(=O)Nc1cc(CO[C@@H]2O[C@H](CO[Si](C)(C)C(C)(C)C)[C@@H](O[C@H]3O[C@H](CO[Si](C)(C)C(C)(C)C)[C@@H](O)[C@H](O)[C@H]3O)[C@H](O)[C@H]2O)ccc1C` [Example 10, N-{5-[6,6′-Di-O-(tert-butyl-dimethyl-silyl)-β-D-maltosyloxy-methyl]-2-methyl-phenyl}-acetamide], the IC50 worked out at 6100 nM. The same measure, in the same setting: the figure for `O=C(OC[C@H]1O[C@H](O[C@H]2[C@H](O)[C@@H](O)[C@H](OCc3ccc(Cl)c([N+](=O)[O-])c3)O[C@@H]2CO)[C@H](O)[C@@H](O)[C@@H]1O)c1cccnc1` [Example 15, (4-Chloro-3-nitrophenyl)methyl-4-O-[6-O-(3-pyridinylcarbonyl)-α-D-glucopyranosyl]-β-D-glucopyranoside] is 73200 nM; for `CC(=O)OC[C@H]1O[C@@H](SCc2ccc(Cl)c(N)c2)[C@H](OC(C)=O)[C@@H](OC(C)=O)[C@@H]1O[C@H]1O[C@H](COC(C)=O)[C@@H](OC(C)=O)[C@H](OC(C)=O)[C@H]1OC(C)=O` [Example 6, (3-Amino-4-chloro-benzyl) hepta-O-acetyl-1-thio-β-D-maltoside] it is 667 nM.

For the compound `CC(=O)O[C@@H]1[C@@H](OC(C)=O)[C@@H](O[C@H]2[C@H](OC(C)=O)[C@@H](OC(C)=O)[C@H](OCc3ccc(C)c([N+](=O)[O-])c3)O[C@@H]2COS(=O)(=O)c2ccc(C)cc2)O[C@H](COS(=O)(=O)c2ccc(C)cc2)[C@H]1OC(C)=O` [Example 21, 5-{[2,2′,3,3′,4′-Penta-O-acetyl-6,6′-bis-O-(4-toluenesulfonyl)-β-maltosyl]-oxy-methyl}-2-methyl-1-nitrobenzene], the IC50 turned out to be 67400 nM. In the case of `CC(=O)Nc1cc(CSC2OC(CO)C(OC3OC(CO)C(O)C(O)C3O)C(O)C2O)ccc1Cl` (stereo not shown) [Example 19], for the setting “@ 50 μM”, the “Porcine Smooth Muscle Cell Antiproliferation percent inhibition” value is recorded as 28% @ 50. Turning to `CC(=O)O[C@@H]1[C@@H](OC(C)=O)[C@@H](O[C@H]2[C@H](OC(C)=O)[C@@H](OC(C)=O)[C@H](OCc3ccc(C)c([N+](=O)[O-])c3)O[C@@H]2Cn2cnc([N+](=O)[O-])c2)O[C@H](Cn2cnc([N+](=O)[O-])c2)[C@H]1OC(C)=O` [Example 23, 5-{[2,2′,3,3′,4′-Penta-O-acetyl-6,6′-dideoxy-6,6′-bis(4-nitro-imidazol-1-yl)-β-maltosyl]-oxy-methyl}-2-methyl-1-nitrobenzene], the IC50 came to 4700 nM. The same measure, in the same setting: to `CC(=O)OC[C@H]1O[C@H](O[C@H]2[C@H](OC(C)=O)[C@@H](OC(C)=O)[C@H](OCc3ccc(Cl)c(NC(=O)c4ccc(C(=O)c5ccccc5)cc4)c3)O[C@@H]2COC(C)=O)[C@H](OC(C)=O)[C@@H](OC(C)=O)[C@@H]1OC(C)=O` [Example 4, 4-Benzoyl-N-{2-chloro-5-[(2,2′,3,3′,4′,6,6′-hepta-O-acetyl-β-D-maltosyl)-oxy-methyl]-phenyl}-benzamide] belongs 164 nM; to `CC(=O)Nc1cc(CO[C@@H]2O[C@H](COC(=O)c3ccccc3)[C@@H](O[C@H]3O[C@H](COC(=O)c4ccccc4)[C@@H](OC(C)=O)[C@H](OC(C)=O)[C@H]3OC(C)=O)[C@H](OC(C)=O)[C@H]2OC(C)=O)ccc1Cl` [Example 13, N-{2-Chloro-5-[([6,6′-di-O-benzoyl-2,2′,3,3′,4′-penta-acetyl-β-D-maltosyl]oxy)methyl]phenyl}-acetamide], 360 nM.

For the origin of these results see patent US7514411B2, “Acylated benzylmaltosides as inhibitors of smooth muscle cell proliferation” (Wyeth, priority 1998, dated 2009).
